These results are taken from article PMC5131891, “Structural Insights into Streptococcal Competence Regulation by the Cell-to-Cell Communication System ComRS” (PLoS Pathogens, 2016).

Values joined by “and” are separate entries in the source; they are usually repeats but may differ in a detail not shown here. Equal values may be shown once. Peptide text beside a SMILES is read from it.

Data set [1] concerns the target ComR K87A/K246A (Streptococcus thermophilus, UniProt A0A1L1QK15, K87A/K246A). Description: ITC, XIP binding on ComR K87A/K246A. On the set-up: species or system Streptococcus thermophilus LMD-9. Particulars: ITC, ComR K87A/K246A. On the procedure:
(§1) Purification of ComR-StreptagII proteins (StreptagII at C-terminus) was performed as described previously with some modifications. E. coli strain BL21 Gold cultures were grown in 2YT medium at 15°C until an OD600 of ~ 0.5, cooled down on ice for 10 minutes, and induced by addition of 0.2% of L-arabinose (wt vol^-1) before continuous shaking at 28°C for 4 h. Cells were then harvested by centrifugation (5,000 × g during 15 min at 8°C). The pellets were resuspended in cold buffer W (100 mM Tris-HCl pH 8.0, 150 mM NaCl, 1 mM EDTA) supplemented with 0.5 mg ml^−1 of lysozyme, incubated for 30 min at 4°C, and sonicated at 4°C. […] Their purity was visualized by SDS-PAGE and their concentrations were measured using a Nanodrop apparatus (protein A280 method) (ThermoFisher Scientific).
(§2) Isothermal titration calorimetry (ITC) experiments were performed at 20°C in 20 mM Tris-HCl pH 8.0, 150 mM NaCl, 1 mM EDTA with an ITC200 calorimeter (Microcal). […] The peptide concentration used in the calculations is based on the weight of the lyophilized peptide and is therefore inaccurate because there may be a significant quantity of bound water, and salts or counter ions. However, the calculated number of binding sites, n, is always close to 1, in agreement with the 1:1 ratio observed in the crystal structure of the ternary complex. […] The calculated KD are therefore apparent values.

Data set [2] deals with ComR K87A/K246A (Streptococcus thermophilus, UniProt A0A1L1QK15, K246A/K87A). Description: ITC, XIP binding on ComR K87A/K246A. Details: species or system Streptococcus thermophilus LMD-9. As to the method:
as §1, §2

A further data set deals with ComR F171A/Y174A (Streptococcus thermophilus, UniProt A0A1L1QK15, F171A/Y174A). Description: ITC, XIP binding on ComR F171A/Y174A. On the set-up: species or system Streptococcus thermophilus LMD-9. On the procedure: as §1, §2
Sequence of ComR F171A/Y174A (A0A1L1QK15 entry or part of it F171A/Y174A): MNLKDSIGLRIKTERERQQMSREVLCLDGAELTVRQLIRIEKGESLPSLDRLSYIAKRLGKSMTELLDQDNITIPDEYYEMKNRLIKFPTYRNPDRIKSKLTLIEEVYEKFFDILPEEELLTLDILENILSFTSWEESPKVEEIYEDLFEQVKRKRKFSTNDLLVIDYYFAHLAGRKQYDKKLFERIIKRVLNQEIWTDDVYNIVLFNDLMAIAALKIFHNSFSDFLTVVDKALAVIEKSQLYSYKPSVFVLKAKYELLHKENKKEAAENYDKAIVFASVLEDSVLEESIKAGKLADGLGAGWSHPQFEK
The conditions of data set [3]: compared with heptapeptide 18–24; ref [30]; cited from earlier work. On the procedure: The corresponding synthetic XIP peptide […] as well as the variants used in the functional analysis were supplied by GenScript or Peptide 2.0 (Chantilly, VA) and resuspended at a concentration of 50 mM in 50% DMSO / 50% protein stora ...
A further data set deals with ComR T90A (Streptococcus thermophilus, UniProt A0A1L1QK15, T90A). Description: ITC, XIP binding on ComR T90A. On the set-up: species or system Streptococcus thermophilus LMD-9. On the procedure:
as §1, §2

The next data set deals with ComR K100A (Streptococcus thermophilus, UniProt A0A1L1QK15, K100A). As to the kind of experiment: ITC, XIP binding on ComR K100A. On the set-up: species or system Streptococcus thermophilus LMD-9. As to the method: as §1, §2
Sequence of ComR K100A (A0A1L1QK15 entry or part of it K100A): as the sequence (A0A1L1QK15 entry or part of it F171A/Y174A) above, with K100A, A171F, A174Y counted along it
In data set [4] the target is ComR WT (Streptococcus thermophilus, UniProt A0A1L1QK15). Description: biochemical. Type of data set: binding, Streptococcus thermophilus LMD-9. The following applies: KD. As to the method: Purification of ComR-StreptagII proteins (StreptagII at C-terminus) was performed as described previously with some modifications. E. coli strain BL21 Gold cultures were grown in 2YT medium at 15°C until an OD600 of ~ 0.5, cooled down on ice for 10 minutes, and induced by addition of 0.2% of L-arabinose (wt vol^-1) before continuous shaking at 28°C for 4 h. Cells were then harvested by centrifugation (5,000 × g during 15 min at 8°C). The pellets were resuspended in cold buffer W (100 mM Tris-HCl pH 8.0, 150 mM NaCl, 1 mM EDTA) supplemented with 0.5 mg ml^−1 of lysozyme, incubated for 30 min at 4°C, and sonicated at 4°C. […] For structural and biophysical analyses, the purification protocol was completed by a size exclusion chromatography step using a HiLoad 16/600 Superdex 75 prep grade column (GE Healthcare) equilibrated in buffer W plus 10% (vol vol^-1) glycerol. Purified proteins were aliquoted, flash frozen and conserved at -20°C. Their purity was visualized by SDS-PAGE and their concentrations were measured using a Nanodrop apparatus (protein A280 method) (ThermoFisher Scientific).
Isothermal titration calorimetry (ITC) experiments were performed at 20°C in 20 mM Tris-HCl pH 8.0, 150 mM NaCl, 1 mM EDTA with an ITC200 calorimeter (Microcal). The protein concentration in the microcalorimeter cell and the peptide concentration in the syringe were set at 50 μM and 500 μM, respectively. A first injection of 0.4 μl, which was not taken into account for the fitting, was followed by 20 injections of 2 μl at intervals of 180 s. The peptide concentration used in the calculations is based on the weight of the lyophilized peptide and is therefore inaccurate because there may be a significant quantity of bound water, and salts or counter ions. However, the calculated number of binding sites, n, is always close to 1, in agreement with the 1:1 ratio observed in the crystal structure of the ternary complex. […] The data were analyzed using the MicroCal Origin software provided by the manufacturer. […] It was therefore not possible to distinguish the two events and the fitting was performed with the one-binding-site model. The calculated KD are therefore apparent values.

A further data set concerns the target ComR R92A (Streptococcus thermophilus, UniProt A0A1L1QK15, R92A). Description: ITC, XIP binding on ComR R92A. Details: species or system Streptococcus thermophilus LMD-9. On the procedure:
as §1, §2

The target in a further data set is ComR Y91A (Streptococcus thermophilus, UniProt A0A1L1QK15, Y91A). As to the kind of experiment: ITC, XIP binding on ComR Y91A. Details: species or system Streptococcus thermophilus LMD-9. As to the method: as §1, §2
Sequence of ComR Y91A (A0A1L1QK15 entry or part of it Y91A): as the sequence (A0A1L1QK15 entry or part of it F171A/Y174A) above, with Y91A, A171F, A174Y counted along it
Data set [5] has as its target T1, ComR WT (Streptococcus thermophilus LMD-9, UniProt PDB:5JUB_1 1-310).
T1 sequence: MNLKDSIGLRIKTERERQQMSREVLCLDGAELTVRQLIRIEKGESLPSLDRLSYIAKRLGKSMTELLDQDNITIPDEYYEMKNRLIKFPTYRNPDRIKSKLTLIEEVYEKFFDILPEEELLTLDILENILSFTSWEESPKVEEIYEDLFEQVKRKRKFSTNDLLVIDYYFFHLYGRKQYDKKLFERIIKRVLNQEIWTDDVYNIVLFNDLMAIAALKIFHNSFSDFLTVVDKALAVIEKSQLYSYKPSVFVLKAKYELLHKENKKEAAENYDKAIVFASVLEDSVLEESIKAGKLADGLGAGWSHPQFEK
Description: EMSA; XIP 0.2-1.2 uM; ComR 4 uM; EMSA: 20 mM Tris-HCl pH 8.0, 150 mM NaCl, 1 mM EDTA, 10% glycerol, 1 mg/ml BSA, 37 C 10 min, 40 ng DNA in 20 ul; crystal: 30% PEG 550 MME, 0.1 M MgCl2, 0.05 M Tris-HCl pH 8.5, 18 C. Particulars: protein: recombinant; tags: C-terminal StreptagII; chain copies: 2; label: Cy3 (Methods: Alexa 555), direct strand; blunt.

In the next data set the target is T2, ComR E146A/D147A (Streptococcus thermophilus LMD-9, UniProt PDB:5JUB_1 1-310, E146A;D147A).
T2 sequence: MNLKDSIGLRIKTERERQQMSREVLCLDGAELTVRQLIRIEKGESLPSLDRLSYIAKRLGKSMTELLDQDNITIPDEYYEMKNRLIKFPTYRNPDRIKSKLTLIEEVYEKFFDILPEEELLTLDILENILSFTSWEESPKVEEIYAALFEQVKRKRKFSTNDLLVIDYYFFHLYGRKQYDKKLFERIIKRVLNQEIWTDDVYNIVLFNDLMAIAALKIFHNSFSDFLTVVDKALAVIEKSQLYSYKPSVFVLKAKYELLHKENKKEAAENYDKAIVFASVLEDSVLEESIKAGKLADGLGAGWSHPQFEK
Description: EMSA; no XIP; ComR 4 uM; strong, multimeric complexes; EMSA: 20 mM Tris-HCl pH 8.0, 150 mM NaCl, 1 mM EDTA, 10% glycerol, 1 mg/ml BSA, 37 C 10 min, 40 ng DNA in 20 ul; crystal: 30% PEG 550 MME, 0.1 M MgCl2, 0.05 M Tris-HCl pH 8.5, 18 C. The following applies: protein: recombinant; tags: C-terminal StreptagII; chain copies: 2; label: Cy3 (Methods: Alexa 555), direct strand; blunt.

The target in data set [6] is T3, ComR K87A/K246A (Streptococcus thermophilus LMD-9, UniProt PDB:5JUB_1 1-310, K87A;K246A).
T3 sequence: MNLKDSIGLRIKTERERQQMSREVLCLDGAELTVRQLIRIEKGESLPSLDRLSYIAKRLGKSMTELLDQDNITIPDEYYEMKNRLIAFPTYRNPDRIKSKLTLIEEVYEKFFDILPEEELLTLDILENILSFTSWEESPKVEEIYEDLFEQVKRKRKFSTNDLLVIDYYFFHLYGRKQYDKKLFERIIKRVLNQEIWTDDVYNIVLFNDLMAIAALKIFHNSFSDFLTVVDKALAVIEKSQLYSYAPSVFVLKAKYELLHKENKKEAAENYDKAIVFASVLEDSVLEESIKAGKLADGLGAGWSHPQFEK
Description: EMSA; XIP up to 1.2 uM; ComR 4 uM; EMSA: 20 mM Tris-HCl pH 8.0, 150 mM NaCl, 1 mM EDTA, 10% glycerol, 1 mg/ml BSA, 37 C 10 min, 40 ng DNA in 20 ul; crystal: 30% PEG 550 MME, 0.1 M MgCl2, 0.05 M Tris-HCl pH 8.5, 18 C. Particulars: protein: recombinant; tags: C-terminal StreptagII; chain copies: 2; label: Cy3 (Methods: Alexa 555), direct strand; blunt.

Sequence of ComR R92A (A0A1L1QK15 entry or part of it R92A): as the sequence (A0A1L1QK15 entry or part of it F171A/Y174A) above, with R92A, A171F, A174Y counted along it
Sequence of ComR T90A (A0A1L1QK15 entry or part of it T90A): as the sequence (A0A1L1QK15 entry or part of it F171A/Y174A) above, with T90A, A171F, A174Y counted along it

Consider `CC(C)C[C@H](NC(=O)[C@H](CS)NC(=O)CNC(=O)[C@H](C)NC(=O)[C@H](Cc1ccccc1)NC(=O)[C@H](Cc1ccc(O)cc1)NC(=O)[C@@H]1CCCN1C(=O)[C@@H](N)CC(C)C)C(=O)O` [XIP] (H-LPYFAGCL-OH), for which the affinity in words entry on ComR K87A/K246A [1] is reported as “did not affect the affinity of ComR for the XIP peptide”; at ComR R92A (ITC, ComR R92A), “decreased affinity for XIP”. Also, the Kd on ComR K87A/K246A [2] is 9 ± 3 nM; on ComR F171A/Y174A it was 87 ± 9 nM; on ComR T90A, 244 ± 108 nM; on ComR K100A, 1170 ± 245 nM; on ComR WT [4], 10 nM and 8 nM; at ComR R92A, 277 ± 23 nM. For the same molecule, on ComR Y91A, the affinity, expressed as Kd, was 141 ± 33 nM. Further, in [3], the stability entry is reported as “more stable”. Besides, the “KD value in words” value at ComR Y91A (ITC, ComR Y91A) is reported as “same order of magnitude than observed with T90A mutant”.

B1: Cy3-boxPster_1655 wt (40 bp) (dsDNA)
DNA 1: CAAAATCGAGTAGTGACATTTATGTCACTACTTTTTTGTT
DNA 2: AACAAAAAAGTAGTGACATAAATGTCACTACTCGATTTTG
As to B1, the binding result with ComR WT [5] is recorded as “binds”; in the data set with ComR E146A/D147A, “binds”; with ComR K87A/K246A [6] it was “no binding”.
